Data taken from patent publication US6891043B2, “Inhibitors of fatty acid amide hydrolase” (The Scripps Research Institute, priority 2000, dated 2005).
Entries after “also recorded” stand apart in the source; their conditions may differ.

How the values were obtained:
FAAH [1] = target: T1, FAAH (Rattus norvegicus, UniProt P97612); assay: FAAH inhibition: breakdown of 14C-oleamide to oleic acid, solubilized liver plasma membrane extract; type: biochemical; conditions: for Ki: Dixon method, 14C-oleamide substrate, pH 9.0, 20-23° C., read-out: K1
T1 construct: using a solubilized liver plasma membrane extract containing FAAH; from tissue; host or cells: liver (solubilized plasma membrane extract)
T1 sequence (P97612 1-579): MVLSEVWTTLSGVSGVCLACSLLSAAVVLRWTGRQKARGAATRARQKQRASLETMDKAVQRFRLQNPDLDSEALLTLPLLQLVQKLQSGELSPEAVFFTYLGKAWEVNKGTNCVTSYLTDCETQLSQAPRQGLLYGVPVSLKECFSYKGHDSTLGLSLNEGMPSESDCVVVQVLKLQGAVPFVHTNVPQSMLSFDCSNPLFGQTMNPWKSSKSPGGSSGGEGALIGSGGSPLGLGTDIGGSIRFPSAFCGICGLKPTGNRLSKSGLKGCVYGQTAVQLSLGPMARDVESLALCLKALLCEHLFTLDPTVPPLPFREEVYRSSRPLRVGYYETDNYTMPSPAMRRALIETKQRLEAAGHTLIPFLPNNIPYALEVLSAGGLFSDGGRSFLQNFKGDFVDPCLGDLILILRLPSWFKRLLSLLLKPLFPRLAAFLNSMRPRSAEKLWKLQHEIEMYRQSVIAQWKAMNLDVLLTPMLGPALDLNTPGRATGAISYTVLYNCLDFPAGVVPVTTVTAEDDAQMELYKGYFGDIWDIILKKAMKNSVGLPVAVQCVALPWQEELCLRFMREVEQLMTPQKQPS
Protocol: K1 values were determined by the Dixon method α-intercepts of weighted linear fits of […] plots at constant substrate concentration, which were converted to K1 values using the formula K1=−xint/[1+[S]/Km]).

FAAH [2] = target: T2, FAAH (Homo sapiens, UniProt O00519); conditions: FAAH substrate preference; cited from earlier work
T2 sequence (O00519 1-579): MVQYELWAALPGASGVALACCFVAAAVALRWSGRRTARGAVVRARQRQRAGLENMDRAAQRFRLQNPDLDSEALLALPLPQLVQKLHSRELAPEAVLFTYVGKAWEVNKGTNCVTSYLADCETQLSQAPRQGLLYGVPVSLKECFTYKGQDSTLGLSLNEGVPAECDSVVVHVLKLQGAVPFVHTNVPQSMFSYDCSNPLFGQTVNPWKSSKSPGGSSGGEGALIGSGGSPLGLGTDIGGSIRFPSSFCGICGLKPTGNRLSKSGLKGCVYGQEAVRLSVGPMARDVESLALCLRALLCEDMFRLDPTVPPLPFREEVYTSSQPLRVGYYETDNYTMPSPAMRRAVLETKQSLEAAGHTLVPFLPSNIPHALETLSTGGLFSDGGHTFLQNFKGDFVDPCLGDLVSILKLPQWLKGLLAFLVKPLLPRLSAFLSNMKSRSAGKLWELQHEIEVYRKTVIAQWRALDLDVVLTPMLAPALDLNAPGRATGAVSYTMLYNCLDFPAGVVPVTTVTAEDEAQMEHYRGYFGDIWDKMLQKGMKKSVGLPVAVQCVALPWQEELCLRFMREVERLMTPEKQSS

treated animals = assay: In vivo sleep study with 17 (wakefulness, SWS2, REM sleep); conditions: 10 mg/kg ip, first 4 h of administration, versus controls
Description: The in vivo properties of the inhibitors detailed herein and their action on the identified oleamide and anandamide potential sites of action are presented herein. […] Accordingly, the inhibitors disclosed herein are useful as inhibitors of FAAH and related amidases, and as a therapeutic agents with applications as sleep aids or analgesics which act by preserving endogenous levels of oleamide and anandamide.

Row | SMILES | FAAH inhibitor potency / activity in words (FAAH [1]) | melting point | further results
1 | CCCCCCCC/C=C\CCCCCCCC(=O)c1nnn(C)n1 [compound 14, 1-(2-Methyl-2H-tetrazol-5-yl)-1-oxo-9(Z)-octadecene] | matched the potency of the trifluoromethyl ketone 3 | – | –
2 | CCCCCCCC/C=C\CCCCCCCC(=O)c1nc2ncccc2o1 [compound 29, 1-(Oxazolo[4,5-b]pyridin-2-yl)-1-oxo-9(Z)-octadecene] | most potent inhibitor; also recorded: more potent than 33 and 35, respectively | – | –
3 | CCCCCCC(=O)c1nc2ncccc2o1 [compound 47, 1-(Oxazolo[4,5-b]pyridin-2-yl)-1-oxo-heptane] | – | 52 to 53 °C | –
4 | CCCCC/C=C\C/C=C\C/C=C\C/C=C\CCCC(N)=O [arachidonamide] | – | – | rel. rate of hydrolysis (FAAH [2]): 1
5 | CCCCCCCC/C=C\CCCCCCCC(N)=O [oleamide] | – | – | rel. rate of hydrolysis (FAAH [2]): 0.7
6 | CCCCCC(=O)c1nc2ncccc2o1 [compound 48, 1-(Oxazolo[4,5-b]pyridin-2-yl)-1-oxo-hexane] | – | 51 to 53 °C | –
7 | O=C(CCCCCCc1ccccc1)c1nc2ncccc2o1 [compound 54, 1-(Oxazolo[4,5-b]pyridin-2-yl)-1-oxo-7-phenylheptane] | – | 60 to 61 °C | –
8 | CCCCCCCCCCCCCCCCCCc1nc2ncccc2o1 [compound 61, 1-(Oxazolo[4,5-b]pyridin-2-yl)octadecane] | inactive | 84 to 85 °C | additional fold loss of binding affinity with removal of the alcohol (FAAH [1]; versus α-hydroxy compound): 10^2 fold; fold loss of binding affinity / potency with removal of the keto group (FAAH [1]; versus α-keto compound): 10^5 fold
9 | CCCCC(=O)c1nc2ncccc2o1 [compound 49, 1-(Oxazolo[4,5-b]pyridin-2-yl)-1-oxo-pentane] | – | 35 to 37 °C | –
10 | O=C(CCCCCc1ccccc1)c1nc2ncccc2o1 [compound 53, 1-(Oxazolo[4,5-b]pyridin-2-yl)-1-oxo-6-phenylhexane] | – | 61 to 63 °C | Ki (FAAH [1]): < 0.2 nM
11 | CC(=O)c1nc2ncccc2o1 [compound 50, 1-(Oxazolo[4,5-b]pyridin-2-yl)-1-oxo-ethane] | – | 103 to 105 °C | –
12 | O=C(CCCCCCCc1ccccc1)c1nc2ncccc2o1 [compound 55, 1-(Oxazolo[4,5-b]pyridin-2-yl)-1-oxo-8-phenyloctane] | – | 70 to 73 °C | –
13 | CCCCCCCCCCCC(O)c1nc2ncccc2o1 (stereo not shown) [compound 60, 1-Hydroxy-1-(oxazolo[4,5-b]pyridin-2-yl)dodecane] | – | – | Ki (FAAH [1]): 1200 nM; times less potent than the corresponding keto derivative (reduction to alcohol) (FAAH [1]; α-hydroxy versus α-keto): approximately 10^3 times

The next lines start with results.

Row | FAAH inhibitor potency / activity in words (FAAH [1]) | melting point | SMILES | further results
14 | – | 77 to 78 °C | CCCCCCCCCCCCCCCC(=O)c1nc2ncccc2o1 [compound 42, 1-(Oxazolo[4,5-b]pyridin-2-yl)-1-oxo-hexadecane] | –
15 | more potent than 34 and 36 | – | CCCCCCCC/C=C/CCCCCCCC(=O)c1nc2ncccc2o1 [compound 33, 1-(Oxazolo[4,5-b]pyridin-2-yl)-1-oxo-9(E)-octadecene] | –
16 | – | 68 to 69 °C | CCCCCCCCCCCC(=O)c1nc2ncccc2o1 [compound 44, 1-(Oxazolo[4,5-b]pyridin-2-yl)-1-oxo-dodecane] | –
17 | more potent than 37 | – | CCCCCCCC/C=C\CCCCCCCC(=O)c1nc2ccccc2o1 [compound 23, 1-(2-Benzoxazolyl)-1-oxo-9(Z)-octadecene] | –
18 | more potent than 34 and 36 | – | CCCCCCCC/C=C/CCCCCCCC(=O)c1cccnn1 [compound 35, 1-Oxo-1-(3-pyridazinyl)-9(E)-octadecene] | –
19 | greatly diminished | – | CCCCCCCC/C=C\CCCCCCCC(=O)c1nc2cccc(C)c2o1 [compound 28, 1-(7-Methylbenzoxazol-2-yl)-1-oxo-9(Z)-octadecene] | –
20 | – | 60 to 61 °C | CCCCCCCC(=O)c1nc2ncccc2o1 [compound 46, 1-(Oxazolo[4,5-b]pyridin-2-yl)-1-oxo-octane] | –
21 | – | 73 to 74 °C | CCCCCCCCCCCCCC(=O)c1nc2ncccc2o1 [compound 43, 1-(Oxazolo[4,5-b]pyridin-2-yl)-1-oxo-tetradecane] | –
22 | more potent than 33 and 35, respectively | – | CCCCCCCC/C=C\CCCCCCCC(=O)c1cccnn1 [compound 17, 1-Oxo-1-(3-pyridazinyl)-9(Z)-octadecene] | decrease of time spent in wakefulness, of the total time (treated animals): 14%; increase of time spent in REM sleep (treated animals): 75%; increase of time spent in REM sleep, of total time (treated animals): 4%; increase of time spent in SWS2 (treated animals): 45%; increase of time spent in SWS2, of the total time (treated animals): 10%; reduction of time spent in wakefulness (treated animals): 20%
23 | – | 60 to 62 °C | CCCCCCCCCC(=O)c1nc2ncccc2o1 [compound 45, 1-(Oxazolo[4,5-b]pyridin-2-yl)-1-oxo-decane] | –
